According to patent US8476298B2 (Exelixis, Inc., priority 2003, dated 2013):

Legend:
c-Kit kinase = c-Kit kinase (Homo sapiens, UniProt P10721); assay: c-Kit AlphaScreen kinase assay; assay type: biochemical; conditions: Table 4, inhibition as IC50 class;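 also: c-Kit kinase phosphorylating biotinylated poly(Glu,Tyr), ATP near its KM, 1 h reaction at ambient temperature, AlphaScreen chemiluminescence with streptavidin donor and anti-phosphotyrosine acceptor beads, 10-point inhibitor titration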
[1] = target: T1, c-Met (baculovirus expressed human c-Met kinase domain P948-S1343) (Homo sapiens, UniProt P08581); assay: c-Met Luciferase-Coupled Chemiluminescent Kinase assay (LCCA); assay type: biochemical;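 also: kinase activity read as percent ATP left after reaction, by luciferase-luciferin chemiluminescence, with 1 µM ATP and 1 µM poly-EY substrate, 2 h at ambient temperature, 10-point dose-response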
T1 construct: human c-Met kinase domain P948-S1343; host or cells: baculovirus expression
T1 sequence (P08581 1011-1343 limits assumed): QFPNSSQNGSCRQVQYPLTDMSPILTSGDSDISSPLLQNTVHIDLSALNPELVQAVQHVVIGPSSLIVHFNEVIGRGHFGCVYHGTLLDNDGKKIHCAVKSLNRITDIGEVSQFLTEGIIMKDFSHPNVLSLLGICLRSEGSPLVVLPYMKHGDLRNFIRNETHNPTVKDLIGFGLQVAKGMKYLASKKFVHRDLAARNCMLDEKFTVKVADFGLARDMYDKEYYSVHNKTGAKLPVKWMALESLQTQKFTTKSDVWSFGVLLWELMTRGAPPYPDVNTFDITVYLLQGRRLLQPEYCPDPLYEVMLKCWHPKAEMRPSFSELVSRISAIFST

[2] = target: T2, KDR (baculovirus expressed human KDR kinase domain D807-V1356) (Homo sapiens, UniProt P35968); assay: biochemical;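 also: Luciferase-coupled chemiluminescent kinase assay, activity read as percent ATP left after 4 h reaction at ambient temperature, ATP near KM, 10-point dose-response in 384-well plates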
T2 construct: human KDR kinase domain D807-V1356; host or cells: baculovirus expression
T2 sequence (P35968 807-1356): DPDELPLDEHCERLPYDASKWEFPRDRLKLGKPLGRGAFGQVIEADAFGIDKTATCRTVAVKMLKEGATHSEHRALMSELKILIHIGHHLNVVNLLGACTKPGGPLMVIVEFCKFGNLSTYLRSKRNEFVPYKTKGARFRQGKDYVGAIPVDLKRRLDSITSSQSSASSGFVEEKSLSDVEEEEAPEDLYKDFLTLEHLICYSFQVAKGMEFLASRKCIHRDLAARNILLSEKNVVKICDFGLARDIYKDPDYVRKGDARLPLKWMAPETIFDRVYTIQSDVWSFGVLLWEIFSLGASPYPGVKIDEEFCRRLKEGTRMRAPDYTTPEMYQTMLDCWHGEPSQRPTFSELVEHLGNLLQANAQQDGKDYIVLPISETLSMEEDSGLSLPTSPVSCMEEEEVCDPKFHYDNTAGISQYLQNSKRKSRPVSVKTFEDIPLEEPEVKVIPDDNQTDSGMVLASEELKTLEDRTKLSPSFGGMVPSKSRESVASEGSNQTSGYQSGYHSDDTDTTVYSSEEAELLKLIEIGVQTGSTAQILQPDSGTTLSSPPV

[3] = target: T3, Flt-3 (baculovirus expressed human Flt-3 kinase domain R571-S993) (Homo sapiens, UniProt P36888); assay: biochemical; conditions: read-out: flt3 IC50;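 also: Luciferase-coupled chemiluminescent kinase assay, activity read as percent ATP left after a 3 h reaction at room temperature, ATP near KM, 10-point dose-response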
T3 construct: human Flt-3 kinase domain R571-S993; host or cells: baculovirus expression
T3 sequence (P36888 571-993): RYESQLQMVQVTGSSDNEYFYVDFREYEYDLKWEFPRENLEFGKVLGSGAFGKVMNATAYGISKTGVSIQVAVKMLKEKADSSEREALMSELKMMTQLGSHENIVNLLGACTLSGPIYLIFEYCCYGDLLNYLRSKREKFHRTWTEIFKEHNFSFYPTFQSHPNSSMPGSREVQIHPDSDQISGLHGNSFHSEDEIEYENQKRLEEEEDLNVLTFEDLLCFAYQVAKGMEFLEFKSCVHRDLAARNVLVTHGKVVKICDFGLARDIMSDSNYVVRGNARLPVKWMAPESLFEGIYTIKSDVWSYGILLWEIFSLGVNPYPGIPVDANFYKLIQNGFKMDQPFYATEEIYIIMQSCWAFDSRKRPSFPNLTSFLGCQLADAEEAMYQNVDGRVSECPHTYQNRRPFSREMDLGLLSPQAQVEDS

Sequence of c-Kit kinase (P10721 26-976): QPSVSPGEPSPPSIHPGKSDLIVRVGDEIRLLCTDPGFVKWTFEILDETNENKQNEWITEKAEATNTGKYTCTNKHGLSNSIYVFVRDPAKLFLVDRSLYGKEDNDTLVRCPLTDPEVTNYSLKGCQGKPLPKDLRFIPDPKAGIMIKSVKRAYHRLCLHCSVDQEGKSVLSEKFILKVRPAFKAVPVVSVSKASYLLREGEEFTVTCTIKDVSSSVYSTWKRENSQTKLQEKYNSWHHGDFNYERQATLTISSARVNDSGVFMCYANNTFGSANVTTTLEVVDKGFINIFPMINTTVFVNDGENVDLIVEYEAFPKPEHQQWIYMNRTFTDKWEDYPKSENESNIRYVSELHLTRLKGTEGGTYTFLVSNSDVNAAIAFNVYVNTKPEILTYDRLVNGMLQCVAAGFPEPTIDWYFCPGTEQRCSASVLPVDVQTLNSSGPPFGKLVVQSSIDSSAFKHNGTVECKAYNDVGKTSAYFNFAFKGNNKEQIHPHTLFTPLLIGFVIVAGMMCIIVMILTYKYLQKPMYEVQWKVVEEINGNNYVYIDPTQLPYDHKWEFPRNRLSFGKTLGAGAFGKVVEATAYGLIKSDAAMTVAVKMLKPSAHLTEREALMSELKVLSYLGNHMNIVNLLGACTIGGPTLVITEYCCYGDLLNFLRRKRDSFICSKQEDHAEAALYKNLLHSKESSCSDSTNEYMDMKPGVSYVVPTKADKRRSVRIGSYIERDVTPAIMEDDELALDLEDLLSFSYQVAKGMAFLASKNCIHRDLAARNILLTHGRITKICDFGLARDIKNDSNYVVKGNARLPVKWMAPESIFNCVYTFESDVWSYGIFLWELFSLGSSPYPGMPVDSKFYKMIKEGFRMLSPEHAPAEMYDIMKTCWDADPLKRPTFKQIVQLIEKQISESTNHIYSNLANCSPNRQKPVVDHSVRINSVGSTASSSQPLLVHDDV

SMILES	IC50 (c-Kit kinase) [nM]	IC50 [1] [nM]	IC50 [2] [nM]	IC50 [3] [nM]
CCOc1ccc(CCNC(=O)C(=O)Nc2ccc(Oc3ccnc4cc(OCC5CCNCC5)c(OC)cc34)c(F)c2)cc1 [Example 167, N-[2-(4-Ethoxy-phenyl)-ethyl]-N′-{3-fluoro-4-[6-methoxy-7-(piperidin-4-ylmethoxy)-quinolin-4-yloxy]-phenyl}-oxalamide]	50 to 500			
COc1cc2c(Oc3ccc(NC(=O)C4(C(=O)Nc5ccc(F)cc5)[C@H](C)[C@H]4C)cc3F)ncnc2cc1OCCCN1CCOCC1 (stereo partly drawn) [Example 383, (2R,3R)-N-[3-fluoro-4-({6-(methyloxy)-7-[(3-morpholin-4-ylpropyl)oxy]quinazolin-4-yl}oxy)phenyl]-N′-(4-fluorophenyl)-2,3-dimethylcyclopropane-1,1-dicarboxamide]		< 50	< 50	500 to 5000
CCN(CC)CCOc1cc2ncnc(Oc3ccc(NC(=O)[C@]4(C(=O)Nc5ccc(F)cc5)C[C@H]4C)cc3F)c2cc1OC [Example 348, (1R,2R)-N-(4-{[7-{[2-(diethylamino)ethyl]oxy}-6-(methyloxy)quinazolin-4-yl]oxy}-3-fluorophenyl)-N′-(4-fluorophenyl)-2-methylcyclopropane-1,1-dicarboxamide]		< 50	< 50	50 to 500
CCN(CC)CCCOc1cc2nccc(Oc3ccc(NC(=O)[C@@]4(C(=O)Nc5ccc(F)cc5)[C@H](C)[C@@H]4C)cc3F)c2cc1OC [Example 374, (1r,2R,3S)-N-(4-{[7-{[3-(diethylamino)propyl]oxy}-6-(methyloxy)quinolin-4-yl]oxy}-3-fluorophenyl)-N′-(4-fluorophenyl)-2,3-dimethylcyclopropane-1,1-dicarboxamide]		< 50	50 to 500	50 to 500
CCN(CC)CCOc1cc2ncnc(Oc3ccc(NC(=O)C4(C(=O)Nc5ccc(F)cc5)[C@H](C)[C@H]4C)cc3F)c2cc1OC (stereo partly drawn) [Example 388, (2R,3R)-N-(4-{[7-{[2-(diethylamino)ethyl]oxy}-6-(methyloxy)quinazolin-4-yl]oxy}-3-fluorophenyl)-N′-(4-fluorophenyl)-2,3-dimethylcyclopropane-1,1-dicarboxamide]		50 to 500	< 50	500 to 5000
CCN(CC)CCCOc1cc2nccc(Oc3ccc(NC(=O)C4(C(=O)Nc5ccc(F)cc5)[C@H](C)[C@H]4C)cc3F)c2cc1OC (stereo partly drawn) [Example 371, (2R,3R)-N-(4-{[7-{[3-(diethylamino)propyl]oxy}-6-(methyloxy)quinolin-4-yl]oxy}-3-fluorophenyl)-N′-(4-fluorophenyl)-2,3-dimethylcyclopropane-1,1-dicarboxamide]		< 50	< 50	50 to 500
CCN(CC)CCCOc1cc2nccc(Oc3ccc(NC(=O)C4(C(=O)Nc5ccc(F)cc5)CC4(C)C)cc3F)c2cc1OC (stereo not shown) [Example 372, N-(4-{[7-{[3-(diethylamino)propyl]oxy}-6-(methyloxy)quinolin-4-yl]oxy}-3-fluorophenyl)-N′-(4-fluorophenyl)-2,2-dimethylcyclopropane-1,1-dicarboxamide]		< 50	< 50	50 to 500
COc1cc2c(Oc3ccc(NC(=O)[C@]4(C(=O)Nc5ccc(F)cc5)C[C@H]4C)cc3F)ncnc2cc1OCCCN1CCNCC1 [Example 390, (1R,2R)-N-[3-fluoro-4-({6-(methyloxy)-7-[(3-piperazin-1-ylpropyl)oxy]quinazolin-4-yl}oxy)phenyl]-N′-(4-fluorophenyl)-2-methylcyclopropane-1,1-dicarboxamide]		< 50	< 50	< 50
COc1cc2c(Oc3ccc(NC(=O)[C@@]4(C(=O)Nc5ccc(F)cc5)[C@H](C)[C@@H]4C)cc3F)ccnc2cc1OCCCN1CCN(C)CC1 [Example 366, (1r,2R,3S)-N-{3-fluoro-4-[(6-(methyloxy)-7-{[3-(4-methylpiperazin-1-yl)propyl]oxy}quinolin-4-yl)oxy]phenyl}-N′-(4-fluorophenyl)-2,3-dimethylcyclopropane-1,1-dicarboxamide]		< 50	50 to 500	50 to 500

Next, values leading:

IC50 (c-Kit kinase) [nM]	IC50 [1] [nM]	IC50 [2] [nM]	IC50 [3] [nM]	SMILES
	50 to 500	50 to 500	< 50	COc1cc2nccc(Oc3ccc(NC(=O)C4(C(=O)NCc5ccc(F)cc5)CC4)cc3)c2cc1OC [Example 392, N-(4-{[6,7-bis(methyloxy)quinolin-4-yl]oxy}phenyl)-N′-[(4-fluorophenyl)methyl]cyclopropane-1,1-dicarboxamide]
	50 to 500	> 5000	50 to 500	COc1cc2nccc(Oc3ccc(NC(=O)C4(C(=O)Nc5ccccc5CN5CCCCC5)CC4)cc3)c2cc1OC [Example 394, N-(4-{[6,7-bis(methyloxy)quinolin-4-yl]oxy}phenyl)-N′-[2-(piperidin-1-ylmethyl)phenyl]cyclopropane-1,1-dicarboxamide]
	< 50	< 50	< 50	COc1cc2c(Oc3ccc(NC(=O)[C@]4(C(=O)Nc5ccc(F)cc5)C[C@@H]4C)cc3F)ccnc2cc1OCCCN1CCN(C)CC1 [Example 354, (1R,2S)-N-{3-fluoro-4-[(6-(methyloxy)-7-{[3-(4-methylpiperazin-1-yl)propyl]oxy}quinolin-4-yl)oxy]phenyl}-N′-(4-fluorophenyl)-2-methylcyclopropane-1,1-dicarboxamide]
	< 50	< 50	50 to 500	COc1cc2c(Oc3ccc(NC(=O)C4(C(=O)Nc5ccc(F)cc5)CC4(C)C)cc3F)ccnc2cc1OCCCN1CCOCC1 (stereo not shown) [Example 377, N-[3-fluoro-4-({6-(methyloxy)-7-[(3-morpholin-4-ylpropyl)oxy]quinolin-4-yl}oxy)phenyl]-N′-(4-fluorophenyl)-2,2-dimethylcyclopropane-1,1-dicarboxamide]
	< 50	< 50	500 to 5000	COc1cc2c(Oc3ccc(NC(=O)C4(C(=O)Nc5ccc(F)cc5)CCC4)cc3F)ccnc2cc1OCCCN1CCN(C)CC1 [Example 385, N-{3-fluoro-4-[(6-(methyloxy)-7-{[3-(4-methylpiperazin-1-yl)propyl]oxy}quinolin-4-yl)oxy]phenyl}-N′-(4-fluorophenyl)cyclobutane-1,1-dicarboxamide]
	< 50	< 50	< 50	COc1cc2c(Oc3ccc(NC(=O)[C@]4(C(=O)Nc5ccc(F)cc5)C[C@H]4C)cc3F)ccnc2cc1OCCCN1CCN(C)CC1 [Example 355, (1R,2R)-N-{3-fluoro-4-[(6-(methyloxy)-7-{[3-(4-methylpiperazin-1-yl)propyl]oxy}quinolin-4-yl)oxy]phenyl}-N′-(4-fluorophenyl)-2-methylcyclopropane-1,1-dicarboxamide]
	< 50	< 50	50 to 500	COc1cc2c(Oc3ccc(NC(=O)C4(C(=O)Nc5ccc(F)cc5)CC4)cc3F)ccnc2cc1OCCCN1CCN(C(=O)OC(C)(C)C)CC1 [Example 346, 1,1-dimethylethyl 4-(3-{[4-[(2-fluoro-4-{[(1-{[(4-fluorophenyl)amino]carbonyl}cyclopropyl)carbonyl]amino}phenyl)oxy]-6-(methyloxy)quinolin-7-yl]oxy}propyl)piperazine-1-carboxylate]
	< 50	< 50	< 50	CCN(CC)CCCOc1cc2ncnc(Oc3ccc(NC(=O)C4(C(=O)Nc5ccc(F)cc5)CC4)cc3F)c2cc1OC [Example 349, N-(4-{[7-{[3-(diethylamino)propyl]oxy}-6-(methyloxy)quinazolin-4-yl]oxy}-3-fluorophenyl)-N′-(4-fluorophenyl)cyclopropane-1,1-dicarboxamide]
	50 to 500	< 50	50 to 500	COc1cc2nccc(Oc3ccc(NC(=O)C4(C(=O)Nc5cccc(CN)c5)CC4)cc3)c2cc1OC [Example 399, N-[3-(aminomethyl)phenyl]-N′-(4-{[6,7-bis(methyloxy)quinolin-4-yl]oxy}phenyl)cyclopropane-1,1-dicarboxamide]
	< 50	< 50	< 50	CCN(CC)CCCOc1cc2nccc(Oc3ccc(NC(=O)[C@]4(C(=O)Nc5ccc(F)cc5)C[C@@H]4C)cc3F)c2cc1OC [Example 361, (1R,2S)-N-(4-{[7-{[3-(diethylamino)propyl]oxy}-6-(methyloxy)quinolin-4-yl]oxy}-3-fluorophenyl)-N′-(4-fluorophenyl)-2-methylcyclopropane-1,1-dicarboxamide]
	50 to 500	< 50	< 50	COc1cc2nccc(Oc3ccc(NC(=O)C4(C(=O)Nc5cccc(CN6CCOCC6)c5)CC4)cc3)c2cc1OC [Example 396, N-(4-{[6,7-bis(methyloxy)quinolin-4-yl]oxy}phenyl)-N′-[3-(morpholin-4-ylmethyl)phenyl]cyclopropane-1,1-dicarboxamide]
	< 50	< 50	50 to 500	COc1cc2c(Oc3ccc(NC(=O)C4(C(=O)Nc5ccc(F)cc5)CCC4)cc3F)ncnc2cc1OCCCN1CCNCC1 [Example 382, N-[3-fluoro-4-({6-(methyloxy)-7-[(3-piperazin-1-ylpropyl)oxy]quinazolin-4-yl}oxy)phenyl]-N′-(4-fluorophenyl)cyclobutane-1,1-dicarboxamide]
